Assay results reported in patent US10759777B2, “Carbazole-containing amides, carbamates, and ureas as cryptochrome modulators” (Synchronicity Pharma, Inc., priority 2014, dated 2020).

Tests used:
[1] = system: core clock genes (Per2, Bmal1, Cry1, Cry2) and gluconeogenic genes (Pckl, G6Pc) in liver; test: 24 hour gene expression studies, liver mRNA by RT-qPCR; assay type: in vivo, mouse; conditions: 50 mg/kg PO BID
Excerpt: Male C57Bl/6J DIO mice were purchased at 17 weeks of age (The Jackson Laboratory, Sacramento, Calif.) and acclimated for a 2 week period before being used for the experiment. Overall group size was 15 per treatment, divided into 5 time-points to give a final group size of 3 mice.
In total, each mouse received 5 doses of compound over the course of the experiment. Mice were weighed and randomly assigned to each treatment based on weight the evening before the commencement of the study. Beginning on Day 3 at 3:00 PM, a group of animals from the vehicle and Compound 72-treated groups were euthanized using CO2 asphyxiation, 50 mg of liver, epididymal fat, and skeletal muscle, respectively, were excised and placed in tube containing 500 μl of RNALater. This procedure took place for the remainder of the time-point groups at their given harvest times. Plasma samples were also taken for each animal and frozen, to be used for later measurement of compound levels.
E.Z.N.A.® HP Total RNA Isolation Kits (R6812-01 and the protocol described in the Manual, Revised 2010) were utilized to prepare and isolate RNA from the liver samples. To prepare the RNA samples, 10-30 mg of sample was removed from RNA-Later and placed in a 1.5 ml microfuge tube. GTC lysis buffer (700 μl) was added to the tissue, which was homogenized with a rotor-stator homogenizer (e.g. Tissue-Tearor, Model #985370 BioSpec Products with 4.5 mm probe, Cat. #985370-04), and then centrifuged at full speed (≥13,000×g) for 5 minutes. The cleared supernatant was transferred by pipetting to a DNA Clearance Column Pre-inserted in a 2 mL Collection Tube. The assembled column was centrifuged at 13,000×g for 1 minute, and the flow-through was saved. An equal volume (700 μl) of 70% ethanol was added to the lysate and mixed. The sample was then applied to a HiBind RNA spin column placed into a 2 ml collection tube, which was centrifuged at 10,000×g for 60 seconds at room temperature. RNA Wash Buffer I (250 μl) was added by pipetting directly onto a new HiBind RNA column inserted in a 2 ml collection tube. The assembled column was centrifuged at 10,000×g for 60 seconds. The RNA column was placed into a new 2 ml collection tube. DNase I stock solution is pipetted (75 μl) directly onto the surface of the HiBind RNA resin in each column (Using DNAse Digestion with RNase Free DNase Set (E1091): for each HiBind RNA column, the DNase I stock solution was prepared as followed: E.Z.N.A.® DNase I Digestion Buffer 73.5 μl, RNase Free DNase I (20 Kunitz/μl) 1.5 μl=Total Volume 75 μl). The column with bound RNA was incubated at room temperature (25-30° C.) for 15 minutes. RNA Wash Buffer I (500 μl) was added to the column and placed on a bench top for 2 minutes. After centrifuging at 10,000×g for 60 seconds, discarding the flow-through, 500 μl of RNA Wash Buffer II was added and centrifuged at 10,000×g for 60 seconds. Another 500 μl of RNA Wash Buffer II was added and the column assembly was centrifuged at 10,000×g for 60 seconds. The column was centrifuged for 2 minutes at maximum speed to completely dry the HiBind matrix. The column was placed in a clean 1.5 ml microcentrifuge tube and 40-70 μl of molecular biology grade water is added. […]
RediPlate 96 RiboGreen RNA Quantification Kit (Invitrogen) RediPlate standard curve was prepared by transferring 20 l reconstituted RNA standard to a RediPlate well reconstituted in 180 l RediPlate TE buffer. […]

[2] = system: core clock genes Per2, Bmal1, Cry2 in liver; test: Four day study, liver core clock gene mRNA in ICR mice; assay type: in vivo, mouse; conditions: 50 mg/kg PO BID 4 days
Experimental: Male ICR mice (weighing 30-35 g), obtained from Charles River Laboratories (Hollister, Calif.), were used for the experiment following at least 3 days of acclimation. Mice were dosed with vehicle (WFI or 10% Kolliphor) or compound (50 mg/kg, dose volume 5 mL/kg, PO) for 4 days BID (twice a day), beginning in the afternoon of the first day. The last dose of compound or vehicle was administered on the morning of harvest. On the day of harvest (6 hours following the final dose), mice were euthanized by CO2 asphyxiation and 50 mg of liver tissue was excised and placed in a tube containing 500 μl of RNA later.
E.Z.N.A.® HP Total RNA Isolation Kits (R6812-01 and the protocol described in the Manual, Revised 2010) were utilized to prepare and isolate RNA from the liver samples. To prepare the RNA samples, 10-30 mg of sample was removed from RNA-Later and placed in a 1.5 ml microfuge tube. GTC lysis buffer (700 μl) was added to the tissue, which was homogenized with a rotor-stator homogenizer (e.g. Tissue-Tearor, Model #985370 BioSpec Products with 4.5 mm probe, Cat. #985370-04), and then centrifuged at full speed (≥13,000×g) for 5 minutes. The cleared supernatant was transferred by pipetting to a DNA Clearance Column Pre-inserted in a 2 mL Collection Tube. The assembled column was centrifuged at 13,000×g for 1 minute, and the flow-through was saved. An equal volume (700 μl) of 70% ethanol was added to the lysate and mixed. The sample was then applied to a HiBind RNA spin column placed into a 2 ml collection tube, which was centrifuged at 10,000×g for 60 seconds at room temperature. RNA Wash Buffer I (250 μl) was added by pipetting directly onto a new HiBind RNA column inserted in a 2 ml collection tube. The assembled column was centrifuged at 10,000×g for 60 seconds. The RNA column was placed into a new 2 ml collection tube. DNase I stock solution is pipetted (75 μl) directly onto the surface of the HiBind RNA resin in each column (Using DNAse Digestion with RNase Free DNase Set (E1091): for each HiBind RNA column, the DNase I stock solution was prepared as followed: E.Z.N.A.® DNase I Digestion Buffer 73.5 μl, RNase Free DNase I (20 Kunitz/μl) 1.5 μl=Total Volume 75 μl). The column with bound RNA was incubated at room temperature (25-30° C.) for 15 minutes. RNA Wash Buffer I (500 μl) was added to the column and placed on a bench top for 2 minutes. After centrifuging at 10,000×g for 60 seconds, discarding the flow-through, 500 μl of RNA Wash Buffer II was added and centrifuged at 10,000×g for 60 seconds. Another 500 μl of RNA Wash Buffer II was added and the column assembly was centrifuged at 10,000×g for 60 seconds. The column was centrifuged for 2 minutes at maximum speed to completely dry the HiBind matrix. The column was placed in a clean 1.5 ml microcentrifuge tube and 40-70 μl of molecular biology grade water is added. After sitting for 1 minute, the column was centrifuged for 2 minutes at maximum speed to elute the RNA. The isolated RNA was collected into the collection tube.
RediPlate 96 RiboGreen RNA Quantification Kit (Invitrogen) RediPlate standard curve was prepared by transferring 20 l reconstituted RNA standard to a RediPlate well reconstituted in 180 l RediPlate TE buffer. For liver RNAs prepared from 30-100 mg of tissue using a kit similar to the Omega Bio-Tek HP Total RNA Kit and eluted in RNAse-free water in a volume of 50 l (microliters), 5 l of the total RNA is diluted in 195 l of RediPlate TE buffer (1:40 dilution of RNA), mix. After transferring 5 l to RediPlate well reconstituted in 195 l TE buffer and incubating 10 min. at RT, Fluorescence Intensity of wells with standards and samples were read in a Tecan M200 with Excitation set at 480 nm and Emission set at 520 nm with the gain set to ˜70%. Alternatively, one can use the FlexStation 3 with Ex 488 nm and Em 525 nm and a Cutoff of 515 nm.

## O=C1NCCN1CC(O)Cn1c2ccc(F)cc2c2cc(F)ccc21 (centres unmarked) [Compound 72, 1-(3-(3,6-difluoro-9H-carbazol-9-yl)-2-hydroxypropyl)imidazolidin-2-one]
[1]; C57Bl/6J DIO and Balb/c mice
  Cry2 mRNA in liver (daytime peak): strongly attenuated
[1]; C57Bl/6J DIO and Balb/c mice, over 24 hours, vs vehicle
  Per2 mRNA in liver: suppressed
[1]; C57Bl/6J DIO mice, relative to vehicle
  circadian pattern of mRNAs for gluconeogenic genes Pckl and G6Pc: substantially altered
[1]; both strains, at ZT8 and 32 hours after ZT0, vs vehicle
  Bmal1 mRNAs in liver: substantially increased
[1]; during its peak of expression in the dark period
  Cry1 mRNA in liver: suppressed
[2]; ZT6
  liver Per2 expression: suppression
[2]; liver
  Cry2 transcripts: decrease
  increase in Bmal1 mRNA at ZT6: 4 fold
